Where two headings read alike, the source gives them in different places.

One data set deals with A549. Put plainly: SRB antiproliferation assay, A549 lung cancer. As to conditions: Homo sapiens, A549, 96 h, read-out: IC50 in the SRB, A549.
The next data set has as its system OVCAR-8. Description: SRB antiproliferation assay, OVCAR-8 ovarian cancer. Particulars: Homo sapiens, OVCAR-8, 96 h, read-out: IC50 in the SRB, OVCAR8. For orientation: Sulforhodamine B stains cellular protein and so reports cell mass.
Another data set has as its system MCF7. Put plainly: SRB antiproliferation assay, MCF7 breast cancer. As to conditions: Homo sapiens, MCF7, 96 h, read-out: IC50 in the SRB, MCF7.
A further data set has as its system MES-SA/DX5 xenografts. Put plainly: MES-SA/DX5 xenograft in nude mice. Particulars: MES-SA/DX5 uterine (MDR) xenograft, IV 10 mg/kg 1/wk.
A further data set deals with C26 xenografts. Description: C26 xenograft in nude mice. As to conditions: C26 colon xenograft, IV 10 mg/kg 1/wk.
The next data set deals with OVCAR8 xenografts. Description: OVCAR8 xenograft in nude mice. Particulars: OVCAR8 ovary xenograft, IV 10 mg/kg 1/wk.
The subject of a further data set is MES-SA. Description: SRB antiproliferation assay, MES-SA uterine cancer. Particulars: Homo sapiens, 96 h, read-out: IC50 in the SRB, MES-SA.
Data set [1] deals with PC-3. Description: SRB antiproliferation assay, PC-3 prostate cancer.
Another data set has as its system A549 xenografts. Description: A549 xenograft in nude mice. Particulars: A549 lung xenograft, IV 10 mg/kg 1/wk.
The subject of another data set is C26. Put plainly: SRB antiproliferation assay, C26 colon cancer. As to conditions: C26, 96 h, read-out: IC50 in the SRB, C26.
The test system of data set [2] is PC-3. Description: apoptosis, cytoplasmic DNA-histone complexes, PC-3. The class given is cell-based, human. Particulars: 0.8 to 600 nmol/L, 24 h.
The next data set deals with PC-3/TxR tumors. Particulars: for Tumor size End: mouse, in vivo, po.
For a further data set, the system named is MES-SA/DX5. Put plainly: SRB antiproliferation assay, doxorubicin-resistant MES-SA/DX5. Particulars: read-out: IC50 in the SRB, MES-SA/DX5, uterine MDR, 96 h, N = 3.
The test system of data set [3] is confluent HUVEC monolayers. Put plainly: endothelial monolayer permeability assay. It is filed as cell-based, human. As to conditions: leakage of FITC-dextran (MW 40,000) after 1, 2 and 4 h. An excerpt:
Endothelial monolayer permeability assay.

The test system of the next data set is HUVEC. Description: endothelial cell growth inhibition SRB, HUVEC. The class given is cell-based, human. As to conditions: for Selectivity ratio, cancer cells/HUVEC: mean IC50 in PC3 and T47D over IC50 in HUVEC.
Data set [4] concerns HUVEC capillary tube formation. Description: capillary formation assay on Matrigel. The class given is cell-based, human. As to conditions: at toxic concentration.
The target in another data set is T1, Porcine brain tubulin (Sus scrofa, UniProt P02550+P02554).
T1 construct: […]; purchased Cytoskeleton, Denver, Colo; host or cells: porcine brain
It is filed as biochemical. Particulars: 5 μM, at 15 min.

Data set [5] is described as follows: pharmacokinetic study in beagle dogs. Particulars: dog, PO 5 mg/kg vs IV 2 mg/kg.
In data set [6] the test system is colchicine-binding site on tubulin. Description: competitive mass binding assay, colchicine-tubulin binding. As to conditions: tubulin 1 mg/mL.
A further data set has as its system T47D. Description: cell growth inhibition SRB, T47D. Particulars: Homo sapiens, N = 3, Table 14. It is filed as cell-based. An excerpt:
(§1) Cell growth inhibition studies. […] Cells were stained with sulphorhodamine B (SRB) solution.

Another data set concerns LNCaP. Description: SRB antiproliferation assay, LNCaP prostate cancer. Particulars: read-out: Cytotoxicity IC50 mean ± SD, LNCaP; 96 h treatment, N = 3.
Another data set deals with PPC-1. Description: SRB antiproliferation assay, PPC-1 prostate cancer. Particulars: read-out: Cytotoxicity IC50 mean ± SD, PPC-1; 96 h treatment, N = 3.
In another data set the test system is PC3. Put plainly: cell growth inhibition SRB, PC3 (vascular study). It is filed as cell-based. Particulars: Homo sapiens, PC-3, N = 3, Table 14.
Text: as §1

In data set [7] the test system is prostate cancer cells (LNCaP, PC-3, DU-145, PPC-1). Description: SRB assay, prostate cancer cells. It is filed as cell-based, human. As to conditions: Homo sapiens, range over prostate cancer cell lines; read-out: IC50 values against prostate cancer cells.
Another data set deals with PC-3/TxR. Put plainly: apoptosis, cytoplasmic DNA-histone complexes, PC-3/TxR. The class given is cell-based, human. As to conditions: 0.8 to 600 nmol/L, 24 h.
For a further data set, the system named is DU 145. Description: SRB antiproliferation assay, DU 145 prostate cancer. Particulars: read-out: Cytotoxicity IC50 mean ± SD, Du-145; 96 h treatment, N = 3.
The next data set deals with CaCO-2. Description: permeability, CaCO-2 assay. Particulars: mean of duplicate studies. (Passage across Caco-2 layers is used to estimate intestinal permeability.)
Data set [8] can be described thus: pharmacokinetic study in Sprague-Dawley rats. As to conditions: rat.
A short description of data set [9]: pharmacokinetic study in ICR mice. As to conditions: mouse, PO 20 mg/kg vs IV 10 mg/kg.

For the compound `CC(=O)O[C@@]12CO[C@@H]1C[C@H](O)[C@@]1(C)C(=O)[C@H](O)C3=C(C)[C@@H](OC(=O)[C@H](O)[C@@H](NC(=O)OC(C)(C)C)c4ccccc4)C[C@@](O)([C@@H](OC(=O)c4ccccc4)[C@H]21)C3(C)C` [Docetaxel, reference compound], the IC50 in the data set with A549 is 0.2 nM; in the data set with OVCAR-8, 0.4 nM; with MCF7, 0.1 nM; in the data set on MES-SA, 0.1 nM; in the data set on PC-3 [1] (read-out: Cytotoxicity IC50 mean ± SD, PC-3, 96 h treatment, N = 3), 1.2 ± 0.1 nM; in the data set with PC-3 [1] (read-out: IC50 in the SRB, PC3, 96 h treatment, N = 3, Table 15) it was 1 to 5 nM. Moreover, the IC50 in the data set on C26 was determined as 4 nM; in the data set on MES-SA/DX5 it was 26 nM; in the data set with MES-SA/DX5 (listed as DTX), 426 nM. Besides, the TGI in the data set on MES-SA/DX5 xenografts was 47%; in the data set with C26 xenografts, 35%; with OVCAR8 xenografts it was 22%; with A549 xenografts it was 44%; in the data set with PC-3/TxR tumors (PC3/TXR prostate (MDR) xenograft, IV 10 mg/kg 1/wk), 14%; in the data set with PC-3/TxR tumors (PC-3/TxR xenograft, IV 10 mpk day 1 and 9, day 19) it was 14%. The same compound returned a TGI in the data set on PC-3/TxR tumors (PC-3/TxR xenograft, IV 20 mpk day 1 and 9, day 19) of 56%. In the data set with PC-3 [2], the “induction of cell apoptosis in PC-3” value was “highly potent”.

As to `COc1cccc2c1C(=O)c1c(O)c3c(c(O)c1C2=O)C[C@@](O)(C(=O)CO)C[C@@H]3O[C@H]1C[C@H](N)[C@H](O)[C@H](C)O1` [Doxorubicin], in [3], the “permeability of endothelial cell monolayer” value is on record as “did not induce any change”. Moreover, the “Selectivity ratio, cancer cells/HUVEC” value with HUVEC is recorded as 1.4; with HUVEC (listed as doxorubicin), “not specific to endothelial cells”. In addition, the capillary construction entry in [4] is listed as “did not affect”.

On to `COc1cc(C(=O)c2csc(Nc3ccc4[nH]ccc4c3)n2)cc(OC)c1OC` [compound 55, (2-(1H-indol-5-ylamino)thiazol-4-yl)(3,4,5-trimethoxyphenyl)methanone], for which the “inhibition of tubulin polymerization” value on Porcine brain tubulin was determined as 40%. The F in [5] amounted to 36%; in data set [8] (PO 10 mg/kg vs IV 5 mg/kg), 24%; in data set [9] it was 34%. In addition, the “competition with colchicine for tubulin binding” value in data set [6] is reported as “competed effectively with colchicine for tubulin binding”. The IC50 amounted to 37.4 nM in the data set on T47D; 27 ± 0.6 nM with LNCaP; 9.7 nM with HUVEC (Homo sapiens, HUVEC, SRB, N = 3, growth factor-supplemented endothelial cells); 36 ± 0.4 nM in the data set on PPC-1; 16.5 ± 1.5 nM with PC-3 [1] (human, PC-3 cells, 96 h); 23.3 nM with PC3. Moreover, the IC50 in data set [7] was 7.5 to 24.1 nM; in the data set on DU 145 it was 38 ± 0.6 nM. The “permeability of endothelial cell monolayer” value in data set [3] is reported as “increased permeability”. The “induction of cell apoptosis in PC-3” value in the data set on PC-3 [2] was “equally potent”. Besides, the “Body weight End” value with PC-3/TxR tumors (PC-3/TxR xenograft, PO 10 mpk b.i.d × 5/w, day 26, start 29 ± 2) was determined as 26 ± 3 g; in the data set with PC-3/TxR tumors (PC-3/TxR xenograft, PO 30 mpk b.i.d × 5/w, day 26, start 29 ± 3) it was 30 ± 2 g. Moreover, the TGI with PC-3/TxR tumors (PC-3/TxR xenograft, PO 30 mpk b.i.d × 5/w, day 26, 30 mg/kg) is given as > 100%. The entries for the “Tumor size End” value in the data set with PC-3/TxR tumors (10 mg/kg) and in the data set on PC-3/TxR tumors (30 mg/kg) were 1152 ± 433 mm^3 and 101 ± 19 mm^3, respectively. Further, the “induction of cell apoptosis in PC-3/TxR” value in the data set with PC-3/TxR is “equally potent”. Moreover, the “Permeability Papp(A→B) in CaCO-2 assay” value with CaCO-2 is recorded as 99 10^−6 cm/s. The results for the AUC in [8] (IV 5 mg/kg) and in [8] (PO 10 mg/kg) were 509 ± 73 µg·min/mL and 246 ± 163 µg·min/mL, respectively. This compound displayed a Vss in data set [8] (IV 5 mg/kg) of 1.0 ± 0.1 L/kg.

One may read the TGI as how far tumour growth fell short of that in controls. A high value points to much slowing of growth. By AUC is commonly meant the area under the concentration-time curve, a measure of exposure. High values mean high exposure, low ones low exposure. One may read the Vss as the apparent volume that relates the amount in the body to the concentration in plasma or blood.

These data come from US10865196B2, “Compounds for treatment of cancer” (University of Tennessee Research Foundation, priority 2008, dated 2020).
